Assay results reported in patent publication US20260337153A1, “IONIZABLE AMINE LIPIDS” (Intellia Therapeutics, Inc., priority 2023, published 2026).
“And” between values parts separate entries of the source, which are not always exact repeats. Equal entries are not always repeated. Where two headings read alike, the source gives them in different places.

How the values were obtained:
Format in all cases: physicochemical
[1] = LNP average particle size and polydispersity by dynamic light scattering; conditions: sgRNA:mRNA 1:2; for Number mean (average particle size) / PDI (polydispersity index) / Z-avg (average particle size): LNP with 50% ionizable lipid, 3% C13 Ether (LNP #1, Compound 53: 3% PEG2K-DMG instead)
Method: Dynamic Light Scattering (“DLS”) is used to characterize the polydispersity index (“pdi” or “PDI”) and size of the LNPs of the present disclosure. DLS measures the scattering of light that results from subjecting a sample to a light source. PDI, as determined from DLS measurements, represents the distribution of particle size (around the mean particle size) in a population, with a perfectly uniform population having a PDI of zero.
(§1) LNP compositions are analyzed for average particle size, polydispersity index (pdi), total RNA content, encapsulation efficiency of RNA, and zeta potential. LNP compositions may be further characterized by lipid analysis, AF4-MALS, NTA, and/or cryo-EM.
Average particle size and polydispersity are measured by dynamic light scattering (DLS) using a Malvern Zetasizer DLS instrument. LNP samples were diluted with PBS buffer prior to being measured by DLS. Z-average diameter (“Z-avg”) which is an intensity-based measurement of average particle size was reported along with number average diameter (“number mean”) and PDI. A Malvern Zetasizer instrument is also used to measure the zeta potential of the LNP. Samples are diluted 1:17 (50 μL into 800 μL) in 0.1×PBS, pH 7.4 prior to measurement.
(§2) In vivo editing efficiency for materials delivered with formulations including various amine lipid (or ionizable lipid) compounds in Experiments 1 through 14 as described in Tables 3 and 4 was assessed. Editing was measured using G000534 (SEQ ID NO: 5) which targets the rat TTR gene. Lipids described above were assessed for efficacy through in vivo editing experiments. LNPs were formulated at a 1:2 w/w ratio of sgRNA (SEQ ID NO: 5) and Cas9 mRNA (SEQ ID NO: 3). In Experiments 1 through 13, lipid components of the LNP are formulated in a molar ratio of 50% ionizable lipid, 38% cholesterol, 9% DSPC, and 3% PEG2K-DMG. In Experiment 14, lipid components of the LNP are formulated in a molar ratio of 50% ionizable lipid, 38% cholesterol, 9% DSPC, and 3% C13 Ether. The final LNPs used in different in vivo editing experiments were characterized to determine the encapsulation efficiency (% E), polydispersity index (PDI), and average particle size (Z-avg and number mean) according to the analytical methods provided above. The pKa values of each of the following ionizable lipids were also measured to be in the range of about 5.8 to about 7.6.
(§3) In vivo editing efficiency for materials delivered with formulations including various combinations of amine lipid (or ionizable lipid) and PEG lipid compounds was assessed as described in Tables 5 and 6. Editing was measured using G000534 (SEQ ID NO: 5) which targets the rat TTR gene. Lipids described above were assessed for efficacy through in vivo editing experiments. LNPs were formulated at a 1:2 w/w ratio of sgRNA (SEQ ID NO: 5) and Cas9 mRNA (SEQ ID NO:3). Lipid components of the LNP are formulated in a molar ratio of 50% ionizable lipid, 38% cholesterol, 9% DSPC, and 3% of various PEG lipids (e.g., PEG2K-DMG, C13 Ether, C14 Ether). The final LNPs used in different in vivo editing experiments were characterized to determine the encapsulation efficiency (% E), polydispersity index (PDI), and average particle size (Z-avg and number mean) according to the analytical methods provided above. The pKa values of each of the following ionizable lipids were also measured to be in the range of about 5.8 to about 7.6.
In vivo editing efficiency for materials delivered with formulations including various amine lipid (or ionizable lipid) compounds as described in Tables 7 and 8 was assessed. Editing was measured using G000534 (SEQ ID NO: 5) which targets the rat TTR gene. Lipids described above were assessed for efficacy through in vivo editing experiments. LNPs were formulated at a 1:2 w/w ratio of sgRNA (SEQ ID NO: 5) and Cas9 mRNA (SEQ ID NO: 3). Lipid components of the LNP were formulated in a molar ratio of 50% ionizable lipid, 38% cholesterol, 9% DSPC, and 3% C13 Ether. […]

[2] = pKa of unformulated amine lipid by TNS fluorescence
How it was run: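 Unformulated amine lipid was diluted from ethanol stock to approx. 100 μM in 0.1 M sodium phosphate buffers spanning pH 4.5–9.0 with TNS. Fluorescence read at ex 321/em 448 nm; normalized data fitted sigmoidally to give pKa.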

[3] = LNP encapsulation efficiency of RNA (Ribogreen fluorescence assay); conditions: sgRNA:mRNA 1:2
Method: as §1
Encapsulation efficiency is calculated as (Total RNA−Free RNA)/Total RNA. A fluorescence-based assay (Ribogreen®, ThermoFisher Scientific) is used to determine total RNA concentration and free RNA. LNP samples are diluted appropriately with 1×TE buffer containing 0.2% Triton-X 100 to determine total RNA or 1×TE buffer to determine free RNA. Standard curves are prepared by utilizing the starting RNA solution used to make the compositions and diluted in 1×TE buffer+/−0.2% Triton-X 100. Diluted RiboGreen® dye (according to the manufacturer's instructions) is then added to each of the standards and samples and allowed to incubate for approximately 10 minutes at room temperature, in the absence of light. A SpectraMax M5 Microplate Reader (Molecular Devices) is used to read the samples with excitation, auto cutoff and emission wavelengths set to 488 nm, 515 nm, and 525 nm respectively. Total RNA and free RNA are determined from the appropriate standard curves. Alternatively, the total RNA concentration can be determined by a reverse-phase ion-pairing (RP-IP) HPLC method. Triton X-100 is used to disrupt the LNPs, releasing the RNA. The RNA is then separated from the lipid components chromatographically by RP-IP HPLC and quantified against a standard curve using UV absorbance at 260 nm.
as §2, §3
In vivo editing efficiency for materials delivered with formulations including various amine lipid (or ionizable lipid) compounds as described in Tables 7 and 8 was assessed. […]

[4] = Table 3, Experiments 1-13, LNP 50% ionizable lipid, 38% cholesterol, 9% DSPC, 3% PEG2K-DMG
[5] = sodium phosphate buffer, Table 2, unformulated amine lipid, TNS, read-out: Lipid pKa
[6] = sodium phosphate buffer, additional ionizable lipids (53-61), unformulated amine lipid, TNS, read-out: Lipid pKa
[7] = LNP with 50% ionizable lipid, 38% cholesterol, 9% DSPC, 3% C13 Ether (LNP #1, Compound 53: 3% PEG2K-DMG instead)
[8] = Table 3, Experiment 14, LNP with 3% C13 Ether

| Number mean [1, 4] | PDI [1, 4] | Z-avg [1, 4] | pKa [2, 5] | % E (encapsulation efficiency) [3, 4] | pKa [2, 6] | Number mean (average particle size) ([1]; 38% cholesterol, 9% DSPC) [nm] | PDI (polydispersity index) ([1]; 38% cholesterol, 9% DSPC) | Z-avg (average particle size) ([1]; 38% cholesterol, 9% DSPC) [nm] | % E (encapsulation efficiency) [3, 7] [%] | Compound | other results |
| --- | --- | --- | --- | --- | --- | --- | --- | --- | --- | --- | --- |
|  |  |  |  |  |  | 64 | 0.01 | 78 | 99 | CCCCCCCCC(CCCCCCCC)OC(=O)CCCCCCC(=O)OCC(CC)(COC(=O)CCCCCCC(=O)OC(CCCCCCCC)CCCCCCCC)COC(=O)NCCN(CC)CC [Compound 66, O′1,O1-(2-((((2-(diethylamino)ethyl)carbamoyl)oxy)methyl)-2-ethylpropane-1,3-diyl) 8,8′-di(heptadecan-9-yl) di(octanedioate)] | pKa ([2]; read-out: pKa): 6.1 |
|  |  |  |  |  |  | 52 | 0.01 | 63 | 99 | CCCCCCCCC(CCCCCCCC)OC(=O)CCCCCC(=O)OCC(COC(=O)CCCCCC(=O)OC(CCCCCCCC)CCCCCCCC)COC(=O)OCCCN1CCCC1 [Compound 64, 7,7′-di(heptadecan-9-yl) O′1,O1-(2-((((3-(pyrrolidin-1-yl)propoxy)carbonyl)oxy)methyl)propane-1,3-diyl) di(heptanedioate)] | pKa ([2]; read-out: pKa): 6.4 |
| 78 nm | 0.02 | 87 nm |  | 97% | 6.1 |  |  |  |  | CCCCCCCCC(CCCCCCCC)OC(=O)CCCCCCC(=O)OCC(COC(=O)CCCCCCC(=O)OC(CCCCCCCC)CCCCCCCC)COC(=O)OCCCN(CC)CC [Compound 60] | Number mean ([1]; Table 5, PEG lipid C13 Ether): 80 nm; PDI ([1]; Table 5, PEG lipid C13 Ether): 0.03; Z-avg ([1]; Table 5, PEG lipid C13 Ether): 87 nm; Number mean ([1]; Table 5, PEG lipid C14 Ether): 83 nm; PDI ([1]; Table 5, PEG lipid C14 Ether): 0.03; Z-avg ([1]; Table 5, PEG lipid C14 Ether): 95 nm; Number mean ([1]; Table 5, PEG lipid PEG2K-DMG): 77 nm; PDI ([1]; Table 5, PEG lipid PEG2K-DMG): 0.03; Z-avg ([1]; Table 5, PEG lipid PEG2K-DMG): 89 nm; % E (encapsulation efficiency) ([3]; Table 5, PEG lipid C13 Ether): 95%; % E (encapsulation efficiency) ([3]; Table 5, PEG lipid C14 Ether): 96%; % E (encapsulation efficiency) ([3]; Table 5, PEG lipid PEG2K-DMG): 96% |
| 83 nm and 78 nm | 0.01 and 0.02 | 100 nm and 95 nm |  | 83% and 82% | 6.8 |  |  |  |  | CCCCC/C=C\C/C=C\CCCCCCCC(=O)OCC(COC(=O)CCCCCC(=O)OC(CCCCCCCC)CCCCCCCC)COC(=O)NCCN(CC)CC (centres unmarked) [Compound 59] |  |

Further lines, the compound ahead of its results:

| Compound | Number mean [1, 4] | PDI [1, 4] | Z-avg [1, 4] | pKa [2, 5] | % E (encapsulation efficiency) [3, 4] | pKa [2, 6] | Number mean (average particle size) ([1]; 38% cholesterol, 9% DSPC) [nm] | PDI (polydispersity index) ([1]; 38% cholesterol, 9% DSPC) | Z-avg (average particle size) ([1]; 38% cholesterol, 9% DSPC) [nm] | % E (encapsulation efficiency) [3, 7] [%] | other results |
| --- | --- | --- | --- | --- | --- | --- | --- | --- | --- | --- | --- |
| CCCCC/C=C\C/C=C\CCCCCCCC(=O)OCC(CCCCCCCCC(=O)OC(CCCCCCCC)CCCCCCCC)COC(=O)OCCCN(CC)CC (centres unmarked) [Compound 9, 2-((((3-(diethylamino)propoxy)carbonyl)oxy)methyl)-11-(heptadecan-9-yloxy)-11-oxoundecyl (9Z,12Z)-octadeca-9,12-dienoate] | 61 nm and 65 nm and 62 nm | 0.03 | 68 nm and 73 nm | 5.87 | 99% |  |  |  |  |  |  |
| CCCCC/C=C\C/C=C\CCCCCCCC(=O)OCC(COC(=O)CCC(OCCCCCCCC)OCCCCCCCC)COC(=O)NCCN(CC)CC (centres unmarked) [Compound 54] | 80 nm | 0.003 | 98 nm |  | 88% | 6.5 |  |  |  |  |  |
| CCCCCCCCC(CCCCCCCC)OC(=O)CCCCCC(=O)OCC(CCCCCCCCC(=O)OCC(CCCC)CCCCCC)COC(=O)NCCN(CC)CC (centres unmarked) [Compound 51, 1-(11-((2-butyloctyl)oxy)-2-((((2-(diethylamino)ethyl)carbamoyl)oxy)methyl)-11-oxoundecyl) 7-(heptadecan-9-yl) heptanedioate] | 81 nm | 0.03 | 90 nm | 6.39 | 99% |  |  |  |  |  |  |
| CCCCC/C=C\C/C=C\CCCCCCCC(=O)OCC(CCCCCCC(=O)OC(CCCCCC)CCCCCC)COC(=O)OCCCN(CC)CC (centres unmarked) [Compound 18, 2-((((3-(diethylamino)propoxy)carbonyl)oxy)methyl)-9-oxo-9-(tridecan-7-yloxy)nonyl (9Z,12Z)-octadeca-9,12-dienoate] | 69 nm | 0.01 | 75 nm | 6.08 | 99% |  |  |  |  |  |  |
| CCCCCCCCC(CCCCCCCC)OC(=O)CCCC(=O)OCC(COC(=O)CCCC(=O)OC(CCCCCCCC)CCCCCCCC)COC(=O)NCCN(CC)CC [Compound 6, O,O′-(2-((((2-(diethylamino)ethyl)carbamoyl)oxy)methyl)propane-1,3-diyl) di(heptadecan-9-yl) diglutarate] | 68 nm and 75 nm | 0.014 and 0.02 | 75 nm and 79 nm | 6.35 | 99% |  | 67 | 0.002 | 81 | 99 | Number mean [1, 8]: 68 nm; PDI [1, 8]: 0.02; Z-avg [1, 8]: 73 nm; Number mean ([1]; Table 5, PEG lipid C13 Ether): 72 nm; PDI ([1]; Table 5, PEG lipid C13 Ether): 0.01; Z-avg ([1]; Table 5, PEG lipid C13 Ether): 79 nm; Number mean ([1]; Table 5, PEG lipid C14 Ether): 81 nm; PDI ([1]; Table 5, PEG lipid C14 Ether): 0.01; Z-avg ([1]; Table 5, PEG lipid C14 Ether): 86 nm; Number mean ([1]; Table 5, PEG lipid PEG2K-DMG): 69 nm; PDI ([1]; Table 5, PEG lipid PEG2K-DMG): 0.04; Z-avg ([1]; Table 5, PEG lipid PEG2K-DMG): 78 nm; Number mean ([1]; Table 7, LNP with 3% C13 Ether): 71 nm; PDI ([1]; Table 7, LNP with 3% C13 Ether): 0.01; Z-avg ([1]; Table 7, LNP with 3% C13 Ether): 78 nm; % E (encapsulation efficiency) [3, 8]: 98%; % E (encapsulation efficiency) ([3]; Table 5, PEG lipid C13 Ether): 97%; % E (encapsulation efficiency) ([3]; Table 5, PEG lipid C14 Ether): 98%; % E (encapsulation efficiency) ([3]; Table 5, PEG lipid PEG2K-DMG): 97%; % E (encapsulation efficiency) ([3]; Table 7, LNP with 3% C13 Ether): 98% |
| CCCCC/C=C\C/C=C\CCCCCCCC(=O)OCC(CCCCCCCCC(=O)OC(CCCCCCCC)CCCCCCCCC)COC(=O)CCC(CCCC)OC(=O)NCCN1CCCC1 (centres unmarked) [Compound 27, 11-(octadecan-9-yloxy)-11-oxo-2-(((4-(((2-(pyrrolidin-1-yl)ethyl)carbamoyl)oxy)octanoyl)oxy)methyl)undecyl (9Z,12Z)-octadeca-9,12-dienoate] | 77 nm | 0.01 | 82 nm | 6.75 | 98% |  |  |  |  |  |  |
